Measured values as given in publication PMC5717224, “New Hybrid Hydrazinyl Thiazole Substituted Chromones: As Potential α-Amylase Inhibitors and Radical (DPPH & ABTS) Scavengers” (Scientific Reports, 2017).

Assays:
[1] = ABTS free radical cation scavenging assay; details: absorbance 734 nm, 30 min incubation; read-out: ABTS radical scavenging activity IC50 ± SEM
Method: The (ABTS+) 2,2ʹ-azino-bis(3-ethylbenzothiazoline-6-sulphonic acid) free radical cation scavenging ability of the compounds was determined by standard method. 7 mM ABTS was dissolved in distilled water and 2.45 mM potassium persulfate was added. The solution was kept in the dark for 12–16 h at room temperature. The sample solutions were prepared in absolute alcohol ranging from 0.01 mg/mL to 1 mg/mL. The samples were added with ABTS solution and incubated for 30 min. The absorbance was taken at 734 nm and the procedure was repeated for ascorbic acid as standard.
(§1) The percentage inhibition of radical scavenging activity was calculated as illustrated, %Inhibition=(AbsorbanceControl−AbsorbanceSample)/AbsorbanceControl×100

[2] = DPPH free radical scavenging assay; details: absorbance 517 nm, 20 min incubation; read-out: DPPH radical scavenging activity IC50 ± SEM
Method: The ability of the sample to scavenge, 2-diphenyl-1-picrylhydrazyl (DPPH) free radicals was evaluated by standard method. The sample solutions were prepared in absolute alcohol, ranging from 0.01 mg/mL to 1 mg/mL. A total of 500 μL of sample was added with 500 µL of 2 µmol DPPH solution. After 20 min of incubation, the samples were placed in the dark at room temperature, the absorbance was taken at 517 nm. 500 µL of prepared DDPH solution and 500 µL of absolute alcohol were used as control. The similar procedure was repeated for ascorbic acid as standard[41],[42].
as §1

Structure (SMILES): O=C1O[C@H]([C@@H](O)CO)C(O)=C1O [Ascorbic acid, reference compound]
- IC50 [1]: 530 ± 300 nM
- IC50 [2]: 330 ± 180 nM

Structure (SMILES): O=Cc1coc2ccccc2c1=O [Compound 1, 4-Oxo-4H-chromene-3-carbaldehyde]
- IC50 [1]: 3740 ± 600 nM
- IC50 [2]: 2230 ± 790 nM

Structure (SMILES): Cc1ccc2occ(C=O)c(=O)c2c1 [Compound 2, 6-Methyl-4-oxo-4H-chromene-3-carbaldehyde]
- melting point: 173 to 175 °C
- IC50 [1]: 2230 ± 60 nM
- IC50 [2]: 2230 ± 600 nM

Structure (SMILES): NC(=S)N/N=C\c1coc2ccccc2c1=O [Compound 3, (Z)-2-((4-Oxo-4H-chromen-3-yl)methylene) hydrazinecarbothioamide]
- melting point: 240 to 242 °C
- IC50 [1]: 1920 ± 90 nM
- IC50 [2]: 1900 ± 60 nM

Structure (SMILES): Cc1ccc2occ(/C=N\NC(N)=S)c(=O)c2c1 [Compound 4, (Z)-2-((6-Methyl-4-oxo-4H-chromen-3-yl)methylene)hydrazinecarbothioamide]
- melting point: 245 to 247 °C
- IC50 [1]: 1260 ± 100 nM
- IC50 [2]: 1140 ± 120 nM

Structure (SMILES): O=c1c(/C=N\Nc2nc(-c3ccccc3)cs2)coc2ccccc12 [Compound 5, (Z)-3-((2-(4-Phenylthiazol-2-yl)hydrazono)methyl)-4H-chromen-4-one]
- melting point: 223 to 225 °C
- IC50 [1]: 1080 ± 150 nM
- IC50 [2]: 1110 ± 150 nM

Structure (SMILES): O=c1c(/C=N\Nc2nc(-c3cccc(O)c3)cs2)coc2ccccc12 [Compound 6, (Z)-3-((2-(4-(3-Hydroxyphenyl)thiazol-2-yl)hydrazono)methyl)-4H-chromen-4-one]
- IC50 [1]: 1892 ± 10 nM
- IC50 [2]: 1900 ± 30 nM

Structure (SMILES): O=c1c(/C=N\Nc2nc(-c3ccc(Br)cc3)cs2)coc2ccccc12 [Compound 7, (Z)-3-((2-(4-(4-Bromophenyl)thiazol-2-yl)hydrazono)methyl)-4H-chromen-4-one]
- melting point: 230 to 232 °C
- IC50 [1]: 830 ± 250 nM
- IC50 [2]: 892 ± 90 nM

Structure (SMILES): O=c1c(/C=N\Nc2nc(-c3cccc(Br)c3)cs2)coc2ccccc12 [Compound 8, (Z)-3-((2-(4-(3-Bromophenyl)thiazol-2-yl)hydrazono)methyl)-4H-chromen-4-one]
- melting point: 225 to 227 °C
- IC50 [1]: 914 ± 190 nM
- IC50 [2]: 912 ± 230 nM

Structure (SMILES): O=c1c(/C=N\Nc2nc(-c3ccc(Cl)c(Cl)c3)cs2)coc2ccccc12 [Compound 9, (Z)-3-((2-(4-(3,4-Dichlorophenyl)thiazol-2-yl)hydrazono)methyl)-4H-chromen-4-one]
- melting point: 245 to 247 °C
- IC50 [1]: 784 ± 120 nM
- IC50 [2]: 314 ± 120 nM

Structure (SMILES): O=c1c(/C=N\Nc2nc(-c3ccc(Cl)cc3Cl)cs2)coc2ccccc12 [Compound 10, (Z)-3-((2-(4-(2,4-Dichlorophenyl)thiazol-2-yl)hydrazono)methyl)-4H-chromen-4-one]
- melting point: 243 to 245 °C
- IC50 [1]: 677 ± 260 nM
- IC50 [2]: 90 ± 170 nM

Structure (SMILES): O=c1c(/C=N\Nc2nc(-c3ccc(Cl)cc3)cs2)coc2ccccc12 [Compound 11, (Z)-3-((2-(4-(4-Chlorophenyl)thiazol-2-yl)hydrazono)methyl)-4H-chromen-4-one]
- melting point: 239 to 241 °C
- IC50 [1]: 918 ± 140 nM
- IC50 [2]: 922 ± 220 nM

Structure (SMILES): O=c1c(/C=N\Nc2nc(-c3cccc(Cl)c3)cs2)coc2ccccc12 [Compound 12, (Z)-3-((2-(4-(3-Chlorophenyl)thiazol-2-yl)hydrazono)methyl)-4H-chromen-4-one]
- melting point: 228 to 230 °C
- IC50 [1]: 1080 ± 80 nM
- IC50 [2]: 1050 ± 30 nM

Structure (SMILES): O=c1c(/C=N\Nc2nc(-c3cccc([N+](=O)[O-])c3)cs2)coc2ccccc12 [Compound 13, (Z)-3-((2-(4-(3-Nitrophenyl)thiazol-2-yl)hydrazono)methyl)-4H-chromen-4-one]
- melting point: 235 to 237 °C
- IC50 [1]: 1890 ± 50 nM
- IC50 [2]: 1740 ± 40 nM

Structure (SMILES): N#Cc1ccc(-c2csc(N/N=C\c3coc4ccccc4c3=O)n2)cc1 [Compound 14, (Z)-4-(2-(2-((4-Oxo-4H-chromen-3-yl)methylene)hydrazinyl)thiazol-4-yl)benzonitrile]
- melting point: 225 to 227 °C
- IC50 [1]: 1260 ± 70 nM
- IC50 [2]: 1290 ± 100 nM

Structure (SMILES): O=c1c(/C=N\Nc2nc(-c3ccc(-c4ccccc4)cc3)cs2)coc2ccccc12 [Compound 15, (Z)-3-((2-(4-(Biphenyl-4-yl)thiazol-2-yl)hydrazono)methyl)-4H-chromen-4-one]
- melting point: 234 to 236 °C
- IC50 [1]: 1640 ± 40 nM
- IC50 [2]: 1410 ± 50 nM

Structure (SMILES): Cc1ccc2occ(/C=N\Nc3nc(-c4ccccc4)cs3)c(=O)c2c1 [Compound 16, (Z)-6-Methyl-3-((2-(4-phenylthiazol-2-yl)hydrazono)methyl)-4H-chromen-4-one]
- melting point: 235 to 237 °C
- IC50 [1]: 1320 ± 200 nM
- IC50 [2]: 1370 ± 200 nM

Structure (SMILES): Cc1ccc2occ(/C=N\Nc3nc(-c4cccc(O)c4)cs3)c(=O)c2c1 [Compound 17, (Z)-3-((2-(4-(3-Hydroxyphenyl)thiazol-2-yl)hydrazono)methyl)-6-methyl-4H-chromen-4-one]
- melting point: 237 to 239 °C
- IC50 [1]: 1380 ± 50 nM
- IC50 [2]: 1340 ± 90 nM

Structure (SMILES): Cc1ccc2occ(/C=N\Nc3nc(-c4ccccc4O)cs3)c(=O)c2c1 [Compound 18, (Z)-3-((2-(4-(2-Hydroxyphenyl)thiazol-2-yl)hydrazono)methyl)-6-methyl-4H-chromen-4-one]
- melting point: 230 to 232 °C
- IC50 [1]: 1730 ± 50 nM
- IC50 [2]: 1660 ± 600 nM

Structure (SMILES): Cc1ccc2occ(/C=N\Nc3nc(-c4cccc(Br)c4)cs3)c(=O)c2c1 [Compound 19, (Z)-3-((2-(4-(3-Bromophenyl)thiazol-2-yl)hydrazono)methyl)-6-methyl-4H-chromen-4-one]
- IC50 [1]: 584 ± 70 nM
- IC50 [2]: 781 ± 180 nM

Structure (SMILES): Cc1ccc2occ(/C=N\Nc3nc(-c4ccc(Br)cc4)cs3)c(=O)c2c1 [Compound 20, (Z)-3-((2-(4-(4-Bromophenyl)thiazol-2-yl)hydrazono)methyl)-6-methyl-4H-chromen-4-one]
- melting point: 235 to 237 °C
- IC50 [1]: 660 ± 160 nM
- IC50 [2]: 611 ± 290 nM

Structure (SMILES): Cc1ccc2occ(/C=N\Nc3nc(-c4ccc(Cl)cc4Cl)cs3)c(=O)c2c1 [Compound 21, (Z)-3-((2-(4-(2,4-Dichlorophenyl)thiazol-2-yl)hydrazono)methyl)-6-methyl-4H-chromen-4-one]
- melting point: 245 to 247 °C
- IC50 [1]: 710 ± 90 nM
- IC50 [2]: 684 ± 130 nM

Structure (SMILES): Cc1ccc2occ(/C=N\Nc3nc(-c4ccc(Cl)c(Cl)c4)cs3)c(=O)c2c1 [Compound 22, (Z)-3-((2-(4-(3,4-Dichlorophenyl)thiazol-2-yl)hydrazono)methyl)-6-methyl-4H-chromen-4-one]
- melting point: 246 to 248 °C
- IC50 [1]: 719 ± 100 nM
- IC50 [2]: 688 ± 170 nM

Structure (SMILES): Cc1ccc2occ(/C=N\Nc3nc(-c4ccc(Cl)cc4)cs3)c(=O)c2c1 [Compound 23, (Z)-3-((2-(4-(4-Chlorophenyl)thiazol-2-yl)hydrazono)methyl)-6-methyl-4H-chromen-4-one]
- melting point: 245 to 247 °C
- IC50 [1]: 820 ± 180 nM
- IC50 [2]: 840 ± 100 nM

Structure (SMILES): Cc1ccc2occ(/C=N\Nc3nc(-c4cccc(Cl)c4)cs3)c(=O)c2c1 [Compound 24, (Z)-3-((2-(4-(3-Chlorophenyl)thiazol-2-yl)hydrazono)methyl)-6-methyl-4H-chromen-4-one]
- melting point: 230 to 232 °C
- IC50 [1]: 1020 ± 40 nM
- IC50 [2]: 990 ± 120 nM

Structure (SMILES): Cc1ccc2occ(/C=N\Nc3nc(-c4cccc([N+](=O)[O-])c4)cs3)c(=O)c2c1 [Compound 25, (Z)-6-Methyl-3-((2-(4-(3-nitrophenyl)thiazol-2-yl)hydrazono)methyl)-4H-chromen-4-one]
- melting point: 240 to 242 °C
- IC50 [1]: 1300 ± 110 nM
- IC50 [2]: 1310 ± 60 nM

Structure (SMILES): Cc1ccc2occ(/C=N\Nc3nc(-c4ccc(C#N)cc4)cs3)c(=O)c2c1 [Compound 26, (Z)-4-(2-(2-((6-Methyl-4-oxo-4H-chromen-3-yl)methylene)hydrazinyl)thiazol-4-yl)benzonitrile]
- melting point: 238 to 240 °C
- IC50 [1]: 1280 ± 40 nM
- IC50 [2]: 1300 ± 130 nM

Structure (SMILES): Cc1ccc2occ(/C=N\Nc3nc(-c4ccc(-c5ccccc5)cc4)cs3)c(=O)c2c1 [Compound 27, (Z)-3-((2-(4-(Biphenyl-4-yl)thiazol-2-yl)hydrazono)methyl)-6-methyl-4H-chromen-4-one]
- melting point: 235 to 237 °C
- IC50 [1]: 1290 ± 70 nM
- IC50 [2]: 1340 ± 70 nM
